Measurements taken from patent US11819476B2, “Rapamycin analogs and uses thereof” (Janssen Pharmaceutica NV, priority 2019, dated 2023).
“Also recorded” adds a separate entry of the source.

How the values were obtained:
Assay type in all cases: cell-based
[1] = test system: pS6K1 in MCF7; assay: AlphaLISA Ultra pS6K1 Assay; settings: Homo sapiens, 1.5 h; MCF7 cells, 90 min incubation
Experimental: Example 74: AlphaLISA Ultra pS6K1 Assay
Assay Protocol: • 1. Seed MCF-7 cells in Corning 3701 plate and incubate for 20˜24 hour. 12,000˜16,000 cells will be seeded in 36 μL medium per well. • 2. Change the culture medium with fresh medium and incubate for another 2 hours. • 3. Add 12 μL (4×) compounds into the cell plate by HAMILTON. Final DMSO concentration is 0.5%. Incubate for 90 minutes. • 4. Aspirate 38 μL by HAMILTON, 10 μL rest per well. • 5. Add 10 μL 2× lysis buffer using HAMILTON; total volume in wells is 20 μL. Allow cells to shake for 30 min. Cover plate by plastic foil and store plate at −80° C. up to analysis. • 6. Thaw cell lysate at RT and transfer 10 μL lysate to assay plate (Optiplate-384). • 7. Add 5 μL acceptor beads into assay plate and incubation for 2 hours • 8. Add 5 μL donor beads and incubation for 2 hours • 9. Count the plate by EnSpire Multimode Plate Reader

[2] = test system: mTORC1 over mTORC2; assay: mTORC1 selectivity over mTORC2 at 24 hrs (pS6K1 and pAKT assays); settings: for mTORC1 selective @ 24 hrs: selectivity for mTORC1 over mTORC2 at 24 hrs
Experimental: (§1) Example 76: Western Blot Based pS6K1 and pAKT Assay at 24 and 48 Hour Timepoints
(§2) Assay Protocol: • 1. Seed six well plate with 500,000 PC3 cells per well and incubate for […]. • 2. Add compounds into the cell plate. Incubate for 24 to 48 hours. • 4. Plate is placed on ice and the media is removed via aspiration. The wells are washed with 1 mL of 1×PBS and then fully aspirated. • 5. 110 μL of 1% Triton Lysis Buffer is added and each well is scraped vigorously. • 6. Cell homogenates are transferred to 1.5 mL eppendorf tubes on ice and spun down at 4° C. for 10 minutes at 10,000 rpm. • 7. Protein concentration of resulting cell lysates were quantified utilizing a Bradford assay and the samples run analyzed via Western blot on 4-12% Bis/Tris gels with 1×MES buffer. • 8. The gels were transferred onto membranes at 50V for 100 minutes, blocked with Odyssey Blocking buffer for 30 minutes then incubated overnight with primary antibody (pS6K1 T389 Rabbit or pAkt S473 Rabbit) overnight at 4° C. on a rotator. • 9. The membranes were washed 3× with TBS-T with a 5 minute incubation between each wash then incubated with secondary antibody (LiCor IRDye 800 Donkey Anti Rabbit) for at least 30 minutes. • 10. The membranes were washed 3× with TBS-T with a 5 minute incubation between each wash. • 11. The gels were then incubated for 5 minutes with PBS at room temperature then imaged using a Li-Cor.
The compound numbers correspond to the compound numbers in Table 1.
Compounds that are not selective at the 24 hrs mark are indicated by “NO” in the “mTORC1 selective @ 24 hrs” column of Table 4. Compounds that partially retain selectivity for mTORC1 inhibition over mTORC2 are indicated by “Partial” in the “mTORC1 selective @ 24 hrs” column of Table 4.

[3] = test system: pS6K1 T389 in PC3 cells (mTORC1 pathway); assay: Western blot based pS6K1 assay (mTORC1 pathway); settings: 24 hours
Experimental: as §1, §2
PC3 cells were treated with everolimus (0.1 μM, 0.01 μM, and 0.001 μM) or I-9 ([…], 0.1 μM, 0.01 μM, and 0.001 μM) for 24 hours.
The methods employed were substantially similar to those described above. Compounds were evaluated in PC3 cells. Additional cell lines that may be used include Jurkat cells, wild-type mouse embryotic fibroblast (MEF) cells, tuberous sclerosis 2 (TSC2) negative (TSC−/−) MEF cells, and tuberous sclerosis 2 (TSC2) positive (TSC+/+) MEF cells. Cells are incubated with compounds of the present invention for various time periods (e.g., 5 minutes, 15 minutes, 30 minutes, 90 minutes, 24 hours, or 48 hours), and evaluated according to known methodologies, such as those herein described.

[4] = test system: pAkt S473 in PC3 cells (mTORC2); assay: Western blot based pAKT assay (mTORC2 pathway); settings: 24 hours
Experimental: as §1
as §2, with “The membranes were washed 3× with TBS-T with a 5 minute incubation between each wash then incubated with secondary antibody (LiCor IRDye 800 Donkey Anti Rabbit) for at least 30 minutes. • 10. The membranes were washed 3× with TBS-T with a 5 minute incubation between each wash. • 11. The gels were then incubated for 5 minutes with PBS at room temperature then imaged using a Li-Cor.” left out
The methods employed were substantially similar to those described above. Compounds were evaluated in PC3 cells. […] Cells are incubated with compounds of the present invention for various time periods (e.g., 5 minutes, 15 minutes, 30 minutes, 90 minutes, 24 hours, or 48 hours), and evaluated according to known methodologies, such as those herein described.

IC50 [1] [nM] | Compound | mTORC1 selective @ 24 hrs [2] | inhibition of the mTORC1 pathway (pS6K1, Western blot) [3] | inhibition of mTORC2 (Akt phosphorylation, pAkt, Western blot) [4] | selectivity over mTORC2 as measured by the impact of pAKT ([2]; at 24 hours, depends on size of C-7 group)
1 to 10 | CO[C@@H]1C[C@H](C[C@@H](C)[C@@H]2CC(=O)[C@H](C)/C=C(\C)[C@@H](O)[C@@H](OC)C(=O)[C@H](C)C[C@H](C)/C=C/C=C/C=C(\C)[C@@H](OCCOc3ccccc3)C[C@@H]3CC[C@@H](C)[C@@](O)(O3)C(=O)C(=O)N3CCCC[C@H]3C(=O)O2)CC[C@H]1OCCO [Example I-7, (26E,28E,30E,31E,38R,39S,40R,41R,43S,45S,47S,48S,49R,50R,59R)-49,59-dihydroxy-48-[(1R)-2-[(1S,3R,4R)-4-(2-hydroxyethoxy)-3-methoxy-cyclohexyl]-1-methyl-ethyl]-50-methoxy-38,39,40,41,51,52-hexamethyl-47-(2-phenoxyethoxy)-69,70-dioxa-60-azatricyclohexatriaconta-26,28,30(51),31(52)-tetraene-53,54,55,56,57-pentone] | Yes | – | – | –
0.1 to 1 | CO[C@@H]1C[C@H](C[C@@H](C)[C@@H]2CC(=O)[C@H](C)/C=C(\C)[C@@H](O)[C@@H](OC)C(=O)[C@H](C)C[C@H](C)/C=C/C=C/C=C(\C)[C@@H](OCCOC3COC3)C[C@@H]3CC[C@@H](C)[C@@](O)(O3)C(=O)C(=O)N3CCCC[C@H]3C(=O)O2)CC[C@H]1OCCO [Example I-9, (23E,25E,27E,28E,34R,35S,36R,37R,39S,41S,43S,44S,46R,47R,56R)-46,56-dihydroxy-44-[(1R)-2-[(1S,3R,4R)-4-(2-hydroxyethoxy)-3-methoxy-cyclohexyl]-1-methyl-ethyl]-47-methoxy-34,35,36,37,48,49-hexamethyl-43-[2-(oxetan-3-yloxy)ethoxy]-67,68-dioxa-57-azatricyclohexatriaconta-23,25,27(48),28(49)-tetraene-50,51,52,53,54-pentone] | Yes | reduction in pS6K1; also recorded: moderate concentration dependent inhibition | did not reduce | –
– | CO[C@@H]1C[C@H](C[C@@H](C)[C@@H]2CC(=O)[C@H](C)/C=C(\C)[C@@H](O)[C@@H](OC)C(=O)[C@H](C)C[C@H](C)/C=C/C=C/C=C(\C)C(OCCCCS(N)(=O)=O)C[C@@H]3CC[C@@H](C)[C@@](O)(O3)C(=O)C(=O)N3CCCC[C@H]3C(=O)O2)CC[C@H]1OCCO (some centres unmarked) [Example I-19] | – | – | – | marked selectivity
0.1 to 1 | CO[C@@H]1C[C@H](C[C@@H](C)[C@@H]2CC(=O)[C@H](C)/C=C(\C)[C@@H](O)[C@@H](OC)C(=O)[C@H](C)C[C@H](C)/C=C/C=C/C=C(\C)[C@@H](OCCCO)C[C@@H]3CC[C@@H](C)[C@@](O)(O3)C(=O)C(=O)N3CCCC[C@H]3C(=O)O2)CC[C@H]1O [Example I-36, (21E,23E,25E,26E,31R,32S,33R,34R,36S,38S,40S,41S,42S,43R,52R)-42,52-dihydroxy-41-[(1R)-2-[(1S,3R,4R)-4-hydroxy-3-methoxy-cyclohexyl]-1-methyl-ethyl]-40-(3-hydroxypropoxy)-43-methoxy-31,32,33,34,44,45-hexamethyl-63,64-dioxa-53-azatricyclohexatriaconta-21,23,25(44),26(45)-tetraene-46,47,48,49,50-pentone] | Yes | – | – | –
– | CO[C@@H]1C[C@H](C[C@@H](C)[C@@H]2CC(=O)[C@H](C)/C=C(\C)[C@@H](O)[C@@H](OC)C(=O)[C@H](C)C[C@H](C)/C=C/C=C/C=C(\C)[C@@H](OCCS(=O)(=O)CCS(=O)(=O)CCO)C[C@@H]3CC[C@@H](C)[C@@](O)(O3)C(=O)C(=O)N3CCCC[C@H]3C(=O)O2)CC[C@H]1O [Example I-65, (21E,23E,25E,26E,34R,35S,36R,37R,39S,41S,43S,44S,45R,46R,55R)-45,55-dihydroxy-43-[2-[2-(2-hydroxyethylsulfonyl)ethylsulfonyl]ethoxy]-44-[(1R)-2-[(1S,3R,4R)-4-hydroxy-3-methoxy-cyclohexyl]-1-methyl-ethyl]-46-methoxy-34,35,36,37,47,48-hexamethyl-70,71-dioxa-56-azatricyclohexatriaconta-21,23,25(47),26(48)-tetraene-49,50,51,52,53-pentone] | – | strong inhibition | – | –
– | CO[C@H]1C[C@@H]2CC[C@@H](C)[C@@](O)(O2)C(=O)C(=O)N2CCCC[C@H]2C(=O)O[C@H]([C@H](C)C[C@@H]2CC[C@@H](OCCO)[C@H](OC)C2)CC(=O)[C@H](C)/C=C(\C)[C@@H](O)[C@@H](OC)C(=O)[C@H](C)C[C@H](C)/C=C/C=C/C=C/1C [everolimus, reference compound] | – | reduction in pS6K1; also recorded: strong inhibition | inhibition of S6K1 phosphorylation (S^473) | –

Compound | IC50 [1] [nM] | mTORC1 selective @ 24 hrs [2] | inhibition of the mTORC1 pathway (pS6K1, Western blot) [3] | inhibition of mTORC2 (Akt phosphorylation, pAkt, Western blot) [4] | selectivity over mTORC2 as measured by the impact of pAKT ([2]; at 24 hours, depends on size of C-7 group)
CO[C@@H]1C[C@H](C[C@@H](C)[C@@H]2CC(=O)[C@H](C)/C=C(\C)[C@@H](O)[C@@H](OC)C(=O)[C@H](C)C[C@H](C)/C=C/C=C/C=C(\C)[C@@H](OCCCCCO)C[C@@H]3CC[C@@H](C)[C@@](O)(O3)C(=O)C(=O)N3CCCC[C@H]3C(=O)O2)CC[C@H]1O [Example I-35, (21E,23E,25E,26E,33R,34S,35R,36R,38S,40S,42S,43S,44R,45R,54R)-44,54-dihydroxy-43-[(1R)-2-[(1S,3R,4R)-4-hydroxy-3-methoxy-cyclohexyl]-1-methyl-ethyl]-42-(5-hydroxypentoxy)-45-methoxy-33,34,35,36,46,47-hexamethyl-65,66-dioxa-55-azatricyclohexatriaconta-21,23,25(46),26(47)-tetraene-48,49,50,51,52-pentone] | 0.1 to 1 | Yes | – | – | –
